Experimental findings from patent publication US20230234943A1, “TREX1 INHIBITORS AND USES THEREOF” (Tempest Therapeutics, Inc., priority 2020, published 2023) are described below.

The assay addresses T1, Human TREX1 enzyme (amino acids 1-242) (Homo sapiens, UniProt Q9NSU2).
T1 construct: Human TREX1 enzyme (amino acids 1-242)
T1 sequence (Q9NSU2 1-242): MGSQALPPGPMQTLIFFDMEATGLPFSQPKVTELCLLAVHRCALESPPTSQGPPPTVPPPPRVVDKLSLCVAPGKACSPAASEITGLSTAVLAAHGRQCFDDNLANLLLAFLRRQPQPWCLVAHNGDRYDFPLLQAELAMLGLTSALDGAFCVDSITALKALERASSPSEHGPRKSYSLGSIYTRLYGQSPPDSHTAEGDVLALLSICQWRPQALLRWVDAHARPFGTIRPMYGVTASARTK
Description: Human TREX1 enzymatic assay with dsDNA native oligonucleotide (Picogreen fluorescence). To be noted: 2 mM dithiothreitol in assay buffer; 50 nM dsDNA oligonucleotide; 30 min preincubation at 25° C.; read-out: TREX1/Human + DTT IC50 AVG. Format: biochemical. In outline:
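Remaining dsDNA quantified by Picogreen fluorescence after EDTA quench, with no-enzyme and DMSO wells as controls. Reactions used 50 nM annealed oligonucleotide for 5–15 min at 25 °C, after a 30 min compound–enzyme preincubation (0.8–0.16 nM TREX1; 2% DMSO; pH 7.7 Tris, 5 mM MgCl2).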
Regarding `COc1cc(-c2nc3cc(N4CCN(C(=O)CCCCN)CC4)ccc3n2COCC[Si](C)(C)C)cc(O)c1O` [Example 128, 5-amino-1-(4-(2-(3,4-dihydroxy-5-methoxyphenyl)-1-((2-(trimethylsilyl)ethoxy)methyl)-1H-benzo[d]imidazol-5-yl)piperazin-1-yl)pentan-1-one], the IC50 is 10 to 100 µM.

For the compound `O=C(O)c1ccc(-c2nc3cc(N4CCC4)ccc3[nH]2)c(F)c1O` [Example 129, 4-(5-(azetidin-1-yl)-1H-benzo[d]imidazol-2-yl)-3-fluoro-2-hydroxybenzoic acid], the IC50 lay within 1 to 10 µM.

For `COc1cc(-c2nc3ccccc3n2C2COC2)c(C(F)(F)F)c(O)c1O` [Example 130, 6-methoxy-4-(1-(oxetan-3-yl)-1H-benzo[d]imidazol-2-yl)-3-(trifluoromethyl)benzene-1,2-diol], the IC50 lay within 10 to 100 µM.

Turning to `COc1cc(-c2nc3cc(N4CCN(c5ccncc5)CC4)ccc3[nH]2)cc(O)c1O` [Example 131, 3-methoxy-5-(5-(4-(pyridin-4-yl)piperazin-1-yl)-1H-benzo[d]imidazol-2-yl)benzene-1,2-diol], the IC50 is 10 to 100 µM. `COc1cc(-c2nc3cc(N4CC5(CN(C(C)=O)C5)C4)ccc3[nH]2)cc(O)c1O` [Example 132, 1-(6-(2-(3,4-dihydroxy-5-methoxyphenyl)-1H-benzo[d]imidazol-5-yl)-2,6-diazaspiro[3.3]heptan-2-yl)ethan-1-one]: the IC50 fell in the range of 10 to 100 µM. Turning to `COc1cc(-c2nc3cc(N4CCN(C(=O)c5ccccc5C(C)(C)C)CC4)ccc3[nH]2)cc(O)c1O` [Example 133, (2-(tert-butyl)phenyl)(4-(2-(3,4-dihydroxy-5-methoxyphenyl)-1H-benzo[d]imidazol-5-yl)piperazin-1-yl)methanone], the IC50 is greater than 100 µM. For `COc1cc(-c2nc3cc(N4CCN(C(=O)c5cccc(C(C)(C)C)c5)CC4)ccc3[nH]2)cc(O)c1O` [Example 134, (3-(tert-butyl)phenyl)(4-(2-(3,4-dihydroxy-5-methoxyphenyl)-1H-benzo[d]imidazol-5-yl)piperazin-1-yl)methanone] the value was greater than 100 µM. With `COc1cc(-c2nc3cc(N4[C@@H]5CC[C@H]4CN(C(=O)c4ccccc4)C5)ccc3[nH]2)cc(O)c1O` [Example 135, ((1R,5S)-8-(2-(3,4-dihydroxy-5-methoxyphenyl)-1H-benzo[d]imidazol-5-yl)-3,8-diazabicyclo[3.2.1]octan-3-yl)(phenyl)methanone], the IC50 lay in the range of 1 to 10 µM.

For `COc1cc(-c2nc3cc(N4C[C@H]5CC[C@@H](C4)N5C(=O)c4ccccc4)ccc3[nH]2)cc(O)c1O` [Example 136], the IC50 is greater than 100 µM. As to `COc1cc(-c2nc3cc(N4CCCC4)ccc3[nH]2)cc(O)c1O` [Example 137, 3-methoxy-5-(5-(pyrrolidin-1-yl)-1H-benzo[d]imidazol-2-yl)benzene-1,2-diol], the IC50 is 1 to 10 µM.

Regarding `COc1cc(-c2nc3cc(N4CC(C#N)C4)ccc3[nH]2)cc(O)c1O` [Example 138, 1-(2-(3,4-dihydroxy-5-methoxyphenyl)-1H-benzo[d]imidazol-5-yl)azetidine-3-carbonitrile], the IC50 is greater than 100 µM. In the case of `COc1cc(-c2nc3cc(N4CC(S(C)(=O)=O)C4)ccc3[nH]2)cc(O)c1O` [Example 139, 3-methoxy-5-(5-(3-(methylsulfonyl)azetidin-1-yl)-1H-benzo[d]imidazol-2-yl)benzene-1,2-diol], the IC50 lay in the range of 1 to 10 µM. For the compound `O=C(O)c1cc(-c2nc3cc(N4CCOCC4)ccc3[nH]2)ccc1O` [Example 140, 2-hydroxy-5-(5-morpholino-1H-benzo[d]imidazol-2-yl)benzoic acid], the IC50 is 10 to 100 µM.

Regarding `O=C(O)c1ccc(-c2nc3ccccc3n2C2COC2)c(F)c1O` [Example 141, 3-fluoro-2-hydroxy-4-(1-(oxetan-3-yl)-1H-benzo[d]imidazol-2-yl)benzoic acid], the IC50 was greater than 100 µM.
